Test system: HL-60 cells
Experiment: Apoptosis of HL-60 cells, DAPI staining of nuclear chromatin
Assay type: cell-based
Conditions: for Apoptic Cell Percentage: 24 hours; for Initiation of apoptosis: DAPI staining
Procedure: Morphological changes in the nuclear chromatin of HL-60 cells undergoing apoptosis were detected by staining with 4′,6-diamidino-2-phenylindole (DAPI). In brief, 0.5×10^6 to 3×10^6 cells were fixed with 4% glutaraledebyde, 0.2% Triton x-100, in PBS and incubated at room temperature for 10 min., then centrifuged at 1000×g for 10 min., resuspended in 20 μl 0.1% DAPI ethanol. Following 15 min, incubation at room temperature, at 10 μl aliquot was placed on a glass slide, and 400 cells per slide were scored for the incidence of apoptotic chromatin changes with a fluorescence microscope.

[1] = 20 μM in DMSO, two trials, result for each trial shown

Compound	Apoptic Cell Percentage [1] [%]	Apoptic Cell Percentage (50 μM in DMSO) [%]	Initiation of apoptosis
1,3-dihydro-4,5-dimethoxy-1-[1-(8-methoxy-2-methyl-6,7-methylenedioxy-1,2,3,4-tetrahydroisoquinoliyl)]isobenzofuran-BH3 [Compound 3]	37.28	39	initiate apoptosis
COc1ccc2c(c1OC)CO[C@@H]2[C@H]1c2c(cc3c(c2OC)OCO3)CCN1C [Compound 4, 1,3-dihydro-4,5-dimethoxy-1-[1-(8-methoxy-2-methyl-6,7-methylenedioxy-1,2,3,4-tetrahydroixo-quinolinyl)]isobenzofuran]	48.32	52	initiate apoptosis

Reference: patent publication US7090853B2, “Noscapine derivatives as adjuvant compositions and methods of use thereof” (Emory University, priority 1999, dated 2006)
